Data reported in patent US7652020B2, “Compounds for the treatment of inflammatory disorders” (Schering Corporation, priority 2004, dated 2010).
pKi: −log10 of the molar value.

These compounds were tested against T1, purified catalytic domain of recombinant human TACE (rhTACEc) (Homo sapiens, UniProt P78536, N452Q/S266A) (assay: TACE kinetic assay: cleavage of internally quenched peptide substrate SPDL-3, fluorescence). Conditions: TACE inhibitory activity, class symbols; read-out: Ki.
T1 construct: Residue 215 to 477 with two mutation (S266A and N452Q) and a 6×His tail; 6xHis (C); made in house; host or cells: baculovirus/Hi5 insect cells
T1 sequence (P78536 215-477 S266A/N452Q): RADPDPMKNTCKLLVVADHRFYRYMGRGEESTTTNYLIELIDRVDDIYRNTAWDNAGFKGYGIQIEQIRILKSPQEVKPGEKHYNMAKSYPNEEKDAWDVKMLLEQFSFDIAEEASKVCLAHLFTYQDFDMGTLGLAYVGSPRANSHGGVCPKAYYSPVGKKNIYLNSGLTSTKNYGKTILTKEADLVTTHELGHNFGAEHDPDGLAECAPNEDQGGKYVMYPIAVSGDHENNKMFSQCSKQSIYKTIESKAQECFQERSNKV
Assay type: biochemical
For `CNc1ncc2c(n1)C(C)N(C(=O)[C@H](O)[C@@H](O)C(=O)N[C@H](C)c1ccc(-n3cccn3)cc1)C2` (stereo partly drawn) [Compound 2053], the pKi was 7.00 to 7.70.
`C[C@@H](NC(=O)[C@H](O)[C@@H](O)C(=O)N1CCc2cc(Cl)ccc2C1c1cc[nH]n1)c1ccc(-n2cccn2)cc1` (stereo partly drawn) [Compound 2596] was tested, and the pKi was > 7.70.
`CCN(C(=O)[C@H](O)[C@@H](O)C(=O)N[C@H](C)c1ccc(-n2cccn2)cc1)C(C)c1cccc(Cl)c1` (stereo partly drawn) [Compound 2481] showed a pKi of 6.00 to 7.00.
`C[C@@H](NC(=O)[C@H](O)[C@@H](O)C(=O)N1CCCN1c1cccc(Cl)c1)c1ccc(-n2cccn2)cc1` [Compound 2495] showed a pKi of 6.00 to 7.00.
`CNc1nc([C@H]2C[C@@H]3C[C@@H]3N2C(=O)[C@H](O)[C@@H](O)C(=O)N[C@H](C)c2ccc(-n3cccn3)cc2)cs1` [Compound 2246] showed a pKi of 7.00 to 7.70.
With `O=C([C@H](O)[C@@H](O)c1cncc(-c2ccc(-c3ccccc3)cc2)n1)N1Cc2ccccc2C1` [Compound 2403] the pKi was < 6.00.
For `C[C@@H](NC(=O)[C@H](O)[C@@H](O)C(=O)N1CC(C)(C)CC1(C)c1cccc(Cl)c1)c1ccc(-n2cccn2)cc1` (stereo partly drawn) [Compound 2238], the pKi was 7.00 to 7.70.
Compound `C[C@@H](NC(=O)[C@H](O)[C@@H](O)C(=O)N1CC2CC1CN2c1ccc(Cl)cc1)c1ccc(-n2cccn2)cc1` (stereo partly drawn) [Compound 2419] has a pKi of 6.00 to 7.00.
Compound `Cc1cnc([C@H](O)[C@@H](O)C(=O)NCC2CCN(c3ccc(F)cc3C#N)CC2)n1C` [Compound 2400] has a pKi of 6.00 to 7.00.
In the case of `CCOc1c(F)cccc1N1CCC(CNC(=O)[C@H](O)[C@@H](O)C(=O)N2CCCC2)CC1` [Compound 2141], the pKi was < 6.00.
`C[C@@H](NC(=O)[C@H](O)[C@@H](O)C(=O)N1CCNCC1c1ccccc1)c1ccc(-n2cccn2)cc1` (stereo partly drawn) [Compound 2414] showed a pKi of 7.00 to 7.70.
With `C[C@@H](NC(=O)[C@H](O)[C@@H](O)C(=O)N1CCCC1(C)c1ccccc1)c1ccc(-n2cccn2)cc1` (stereo partly drawn) [Compound 2235] the pKi was > 7.70.
`C[C@@H](NC(=O)[C@H](O)[C@@H](O)C(=O)N1CCc2ncncc2C1)c1ccc(-n2cccn2)cc1` [Compound 2079] was tested, and the pKi was 6.00 to 7.00.
Work on `C[C@@H](NC(=O)[C@](C)(O)[C@@H](O)C(=O)N1CCc2ccc(F)cc2C1)c1ccc(-n2cccn2)cc1` [Compound 2440] yielded a pKi of 7.00 to 7.70.
For `C[C@@H](NC(=O)[C@H](O)[C@@H](O)C(=O)N1CCC[C@@H]1c1ccn(-c2ccccc2)n1)c1ccc(-n2cccn2)cc1` [Compound 2597], the pKi was > 7.70.
`C[C@@H](NC(=O)[C@H](O)[C@@H](O)C(=O)N1Cc2cccnc2C1)c1ccc(-c2cccc(OCCC3CCCCC3)c2)cc1` [Compound 2353B] showed a pKi of 7.00 to 7.70.
With `C[C@@H](NC(=O)[C@H](O)[C@@H](O)C(=O)N1CCC[C@@H]1c1cc[nH]n1)c1ccc(-n2cccn2)cc1` [Compound 2247] the pKi was > 7.70.
`CNc1nc([C@H]2C[C@H]3C[C@H]3N2C(=O)[C@H](O)[C@@H](O)C(=O)N[C@H](C)c2ccc(-n3cccn3)cc2)cs1` [Compound 2245] was tested, and the pKi was > 7.70.
Work on `O=C(NCc1ccc(-c2ccc(F)cc2OCCC2CCCCC2)cc1)[C@H](O)[C@@H](O)C(=O)N1CCCC1` [Compound 2342] yielded a pKi of 6.00 to 7.00.
In the case of `C[C@@H](NC(=O)[C@H](O)[C@@H](O)C(=O)N1Cc2cccnc2C1)c1ccc(-n2cccn2)c(OCc2ccccc2)c1` [Compound 2304], the pKi was > 7.70.
With `C[C@@H](NC(=O)[C@](C)(O)[C@@H](O)C(=O)N1Cc2cccnc2C1)c1ccc(-n2cccn2)c(OCC2CC2)c1` [Compound 2358] the pKi was 6.00 to 7.00.
In the case of `C[C@@H](NC(=O)[C@H](O)[C@@H](O)C(=O)N1CCCC(C)(C)C1)c1ccc(-n2cccn2)cc1` [Compound 2412], the pKi was 6.00 to 7.00.
For `O=C(NC[C@H]1CC[C@H](n2c(C(F)(F)F)nc3ccccc32)CC1)[C@H](O)[C@@H](O)C(=O)N1CCC[C@@H]1c1ccccc1` [Compound 2351], the pKi was > 7.70.
`CC1c2ncncc2CN1C(=O)[C@H](O)[C@@H](O)C(=O)N[C@H](C)c1ccc(-n2cccn2)cc1` (stereo partly drawn) [Compound 2049] was tested, and the pKi was 7.00 to 7.70.
For `C[C@@H](NC(=O)[C@H](O)[C@@H](O)C(=O)N1CCC[C@@H]1c1cccc(Cl)c1)c1ccc(-n2cccn2)cc1` [Compound 944], the pKi was > 7.70.
In the case of `N#Cc1ccccc1N1CCC2(CC1)CC2NC(=O)[C@H](O)[C@@H](O)C(=O)N1CCC[C@@H]1c1ccccc1` (stereo partly drawn) [Compound 2152], the pKi was < 6.00.
Compound `C[C@@H](NC(=O)[C@](C)(O)[C@@H](O)C(=O)N1Cc2cccnc2C1)c1ccc(-c2cccc(OCCC3CCCCC3)c2)cc1` [Compound 2353A] has a pKi of 6.00 to 7.00.
`C[C@@H](NC(=O)[C@H](O)[C@@H](O)C(=O)N1CCc2[nH]ncc2C1)c1ccc(-n2cccn2)cc1` [Compound 2073] gave a pKi of 7.00 to 7.70.
`CC(C)CN(C(=O)[C@H](O)[C@@H](O)C(=O)N[C@H](C)c1ccc(-n2cccn2)cc1)C(C)c1cccc(Cl)c1` (stereo partly drawn) [Compound 2482] was tested, and the pKi was < 6.00.
For `C[C@@H](NC(=O)[C@H](O)[C@@H](O)C(=O)N1CCc2cc(Cl)c(Cl)cc2C1c1ccccc1)c1ccc(-n2cccn2)cc1` (stereo partly drawn) [Compound 2443], the pKi was > 7.70.
In the case of `CC(=O)N(C)c1nc([C@H]2CCCN2C(=O)[C@H](O)[C@@H](O)C(=O)N[C@H](C)c2ccc(-n3cccn3)cc2)cs1` [Compound 2261], the pKi was > 7.70.
In the case of `C[C@@H](NC(=O)[C@](C)(O)[C@@H](O)C(=O)N1CCc2ncccc2C1)c1ccc(-n2cccn2)cc1` [Compound 2078], the pKi was 6.00 to 7.00.
With `CNc1nc([C@H]2CCCN2C(=O)[C@H](O)[C@@H](O)C(=O)NCC2CCN(c3ccc(F)cc3C#N)CC2)cs1` [Compound 2253] the pKi was > 7.70.
`CC(C)(NC(=O)[C@H](O)[C@@H](O)C(=O)N1CCCC1)C1CCN(c2ccc(F)cc2C#N)CC1` [Compound 2157] gave a pKi of 7.00 to 7.70.
In the case of `CC#CCOc1cc([C@@H](C)NC(=O)[C@H](O)[C@@H](O)C(=O)N2CC=CC2c2cccc(Cl)c2)ccc1-n1cccn1` (stereo partly drawn) [Compound 2572], the pKi was > 7.70.
In the case of `Cn1ccnc1[C@H](O)[C@@](C)(O)C(=O)NCC1CCN(c2ccc(F)cc2C#N)CC1` [Compound 2395], the pKi was 6.00 to 7.00.
In the case of `C[C@@H](NC(=O)[C@H](O)[C@@H](O)C(=O)N1Cc2cncnc2C1)c1ccc(-n2cccn2)cc1` [Compound 2044], the pKi was > 7.70.
In the case of `CNc1nc([C@H]2C=CCN2C(=O)[C@H](O)[C@@H](O)C(=O)N[C@H](C)c2ccc(-n3cccn3)cc2)cs1` [Compound 2250], the pKi was > 7.70.
For `COc1cc([C@@H](C)NC(=O)[C@](C)(O)[C@@H](O)C(=O)N2Cc3cccnc3C2)ccc1-n1cccn1` [Compound 2355], the pKi was > 7.70.
For `N#Cc1cc(F)ccc1N1CCC(CNC(=O)[C@H](O)[C@@H](O)c2cnccn2)CC1` [Compound 2387], the pKi was < 6.00.
Compound `C[C@@H](NC(=O)[C@H](O)[C@@H](O)C(=O)N1Cc2cncnc2C1(C)C)c1ccc(-n2cccn2)cc1` [Compound 2046] has a pKi of 6.00 to 7.00.
With `C[C@@H](NC(=O)[C@H](O)[C@@H](O)C(=O)N1CCCCC1c1ccccc1)c1ccc(-n2cccn2)cc1` (stereo partly drawn) [Compound 2410] the pKi was > 7.70.
For `CC(C)Nc1nc([C@H]2c3ccccc3CCN2C(=O)[C@H](O)[C@@H](O)C(=O)N[C@H](C)c2ccc(-n3cccn3)cc2)cs1` [Compound 2588], the pKi was > 7.70.
`Cn1c(Cc2ccccc2)cnc1[C@H](O)[C@@H](O)C(=O)NCC1CCN(c2ccc(F)cc2C#N)CC1` [Compound 2365] was tested, and the pKi was 6.00 to 7.00.
With `CNc1nc(C2c3ccccc3CN2C(=O)[C@H](O)[C@@H](O)C(=O)N[C@H](C)c2ccc(-n3cccn3)cc2)cs1` (stereo partly drawn) [Compound 2445] the pKi was > 7.70.
With `C[C@@H](NC(=O)[C@H](O)[C@@H](O)C(=O)N1CCC[C@@H]1c1ccn(-c2cccc(F)c2)n1)c1ccc(-n2cccn2)cc1` [Compound 2598] the pKi was > 7.70.
`Cc1nc([C@H]2CCCN2C(=O)[C@H](O)[C@@H](O)C(=O)N[C@H](C)c2ccc(-n3cccn3)cc2)cs1` [Compound 2591] was tested, and the pKi was > 7.70.
With `Cn1ccnc1[C@H](O)[C@@H](O)C(=O)NCc1ccc(-n2cccn2)cc1` [Compound 2397] the pKi was < 6.00.
For `C[C@H]1CN(c2ccccc2C#N)CCC1CNC(=O)[C@H](O)[C@@H](O)C(=O)N1CCC[C@@H]1c1ccccc1` (stereo partly drawn) [Compound 2145], the pKi was 6.00 to 7.00.
In the case of `CNc1nc(C2(C)CCCN2C(=O)[C@H](O)[C@@H](O)C(=O)N[C@H](C)c2ccc(-n3cccn3)cc2)cs1` (stereo partly drawn) [Compound 2244], the pKi was > 7.70.
Work on `Cc1ncc2c(n1)CN(C(=O)[C@H](O)[C@@H](O)C(=O)N[C@H](C)c1ccc(-n3cccn3)cc1)C2` [Compound 2045] yielded a pKi of 6.00 to 7.00.
`Cn1c(Br)cnc1[C@H](O)[C@@H](O)C(=O)NCC1CCN(c2ccc(F)cc2C#N)CC1` [Compound 2372] was tested, and the pKi was < 6.00.
`C[C@@H](NC(=O)[C@H](O)[C@@H](O)C(=O)N1Cc2ccc[n+]([O-])c2C1)c1ccc(-n2cccn2)cc1` [Compound 2030] was tested, and the pKi was 7.00 to 7.70.
With `Cn1cnnc1[C@H](O)[C@@H](O)C(=O)NCC1CCN(c2ccc(F)cc2C#N)CC1` [Compound 2376] the pKi was < 6.00.
`N#Cc1ccccc1N1CCC2(CC1)CC2NC(=O)[C@H](O)[C@@H](O)C(=O)N1Cc2ccccc2C1` (stereo partly drawn) [Compound 2155] was tested, and the pKi was < 6.00.
`O=C(NCc1ccc(-c2ccccc2OC(F)(F)F)cn1)[C@H](O)[C@@H](O)c1ccccn1` [Compound 2398] was tested, and the pKi was < 6.00.
`C[C@@H](NC(=O)[C@H](O)[C@@H](O)C(=O)N1CCCCC1)c1ccc(-n2cccn2)cc1` [Compound 2408] showed a pKi of 7.00 to 7.70.

Same assay, conditions: TACE, representative compounds, numeric values; read-out: Ki
`C[C@@H](NC(=O)[C@H](O)[C@@H](O)C(=O)N1CCc2ccc(F)cc2C1)c1ccc(-n2cccn2)cc1` [drawing 1323] was tested, and the pKi was 8.52.
`COc1cc2c(cc1OC)C(c1ccccc1)N(C(=O)[C@H](O)[C@@H](O)C(=O)N[C@H](C)c1ccc(-n3cccn3)cc1)CC2` (stereo partly drawn) [drawing 1306] showed a pKi of 9.07.
Work on `CCNc1nc(C2c3ccccc3CCN2C(=O)[C@H](O)[C@@H](O)C(=O)N[C@H](C)c2ccc(-n3cccn3)cc2)cs1` (stereo partly drawn) yielded a pKi of 9.52.
`CNc1nc([C@H]2CCCN2C(=O)[C@H](O)[C@@H](O)C(=O)N[C@H](C)c2ccc(-n3cccn3)cc2)c(S(C)(=O)=O)s1` [drawing 1294] was tested, and the pKi was 9.42.
Work on `C[C@@H](NC(=O)[C@H](O)[C@@H](O)C(=O)N1Cc2ccncc2C1)C1CCN(c2ccccc2OC(F)(F)F)CC1` yielded a pKi of 9.13.
For `C[C@@H](NC(=O)[C@H](O)[C@@H](O)C(=O)N1CCC[C@@H]1c1ccn(-c2ccc(F)cc2)n1)c1ccc(-n2cccn2)cc1` [drawing 1320], the pKi was 8.57.
